Assay results published in patent publication US20120100230A1, “Systems, Devices, and/or Methods for Managing Crops” (DHARMA IP, LLC, priority 2010, published 2012).

Experiment: Solubility of beta-cyclodextrin in water containing ClO2 (slurry test)
Assay type: physicochemical
Details: 100 g slurry, 5% beta-cyclodextrin (w/w) in 8000 ppm ClO2 vs ultrapure water, 200 rpm, 3 days
Protocol: However indirect evidence for the complex has been observed. Beta-cyclodextrin has a known solubility in water. If the water contains a guest substance that produces a cyclodextrin complex more soluble than the cyclodextrin alone, more of the cyclodextrin will dissolve into water containing that guest than into plain water. This enhanced solubility has been observed for beta-cyclodextrin in water containing ClO2. Two separate 100 g slurries of beta-cyclodextrin solutions were prepared. […] Both slurries were mixed at 200 rpm for 3 days, at which time the undissolved beta-cyclodextrin was isolated from both solutions and dried for 2 days in a desiccator. […] It is believed, by extension, that ClO2 might form complexes with gamma-cyclodextrin and/or chemically derivatized versions of the natural (alpha- (“α”), beta- (“β”), and gamma- (“γ”)) cyclodextrins. In the case of beta- and/or gamma-cyclodextrin and/or other cyclodextrins having internal cavities larger than that of alpha-cyclodextrin, it might be that the complex(es) formed with ClO2 will incorporate numbers of ClO2 molecules greater than one per cyclodextrin molecule.

weight of dried undissolved beta-cyclodextrin from ClO2 containing slurry less than the control slurry: 0.32 g
SMILES: OC[C@H]1O[C@@H]2O[C@H]3[C@H](O)[C@@H](O)[C@@H](O[C@H]4[C@H](O)[C@@H](O)[C@@H](O[C@H]5[C@H](O)[C@@H](O)[C@@H](O[C@H]6[C@H](O)[C@@H](O)[C@@H](O[C@H]7[C@H](O)[C@@H](O)[C@@H](O[C@H]8[C@H](O)[C@@H](O)[C@@H](O[C@H]1[C@H](O)[C@H]2O)O[C@@H]8CO)O[C@@H]7CO)O[C@@H]6CO)O[C@@H]5CO)O[C@@H]4CO)O[C@@H]3CO [beta-cyclodextrin]
